Measured values from EP4527828A1, “BIPHENYL COMPOUND, PHARMACEUTICAL COMPOSITION, METHOD FOR PREPARING SAME, AND USE THEREOF” (Longivitron (Suzhou) Biotechnology Co., Ltd, priority 2022, dated 2023).
Like-named read-outs stand apart in the source and are kept apart here.

Experiments:
[1] = tested on: mouse liver cancer HEPA1-6; assay type: in vivo; settings: 27 days
Method: (1) 32 8-week-old female C57L mice were selected and divided into 5 cages. HEPA1-6 cells cultured with DMEM + 10% FBS in vitro were washed with PBS and digested with 0.25% trypsin for 3 min. The digestion was terminated with a serum-containing medium, the cells were centrifuged at 2500 rpm for 5 min, the supernatant was discarded, and the cells were resuspended with an appropriate amount of PBS twice. The number of cells was 1.14 × 10^7 cells/mL as counted with a BioRad counting instrument. The cell suspension was placed in an Erlenmeyer flask in an ice bath for later use. The tumor fluid was evenly aspirated using a 1 mL sterile syringe and inoculated 0.2 mL/mouse. After the inoculation was completed, the mice continued to be fed under the initial feeding conditions.
(2) Animal grouping: On the second day after tumor fluid inoculation of C57B/L mice, 32 mice were randomly grouped: 8 mice in a control group, 6 mice in a Compound 4-5 mg/kg group, 6 mice in a Compound 4-10 mg/kg group, 6 mice in a Compound 4-20 mg/kg group, and 6 mice in a positive control drug cyclophosphamide (CTX)-100 mg/kg group. The drug test groups were given the drugs to be tested orally once a day, and the positive control drug CTX was injected intraperitoneally once. The mice were weighed and administered daily.
(3) Drug preparation: The corresponding amounts of the drugs to be tested were weighed according to the final concentrations of the experimental groups. The drugs of the Compound 4-5 mg/kg group, the Compound 4-10 mg/kg group, and the Compound 4-20 mg/kg group were prepared with 5% CMCNa + Tween 80, and CTX was prepared with normal saline. The mice in the control group were given 5% CMCNa solution orally. The dosages were as follows: 0.4 mL/20 g body weight of the animal for intragastric administration, and 0.2 mL/20 g body weight of the animal for intraperitoneal injection.
(4) The animals were sacrificed, and the tumors were separated and weighed. The animals in each group were treated immediately 1 h after administration on the last day and weighed, and the tumor tissue was separated and weighed.

mouse melanoma B16F10 = assay type: in vivo
Method: (1) 43 8-week-old female C57B/L mice were selected and divided into 5 cages. One preserved B16F10 tumor-bearing female C57L mouse was sacrificed by cervical dislocation. 75% alcohol was sprayed on the skin of the mouse in a laminar flow cabinet, and the tumor tissue of the tumor-bearing mouse was separated by sterilized surgical instruments and cut into a sterilized 5 mL homogenizer with ophthalmic scissors. The tumor tissue was slowly milled on ice to form a tumor fluid. The number of cells was 6.85 × 10^7 cells/mL as counted with a BioRad counting instrument. The tumor fluid was placed in an Erlenmeyer flask in an ice bath for later use. The tumor fluid was evenly aspirated using a 1 mL sterile syringe and inoculated 0.2 mL/C57/L mouse. After the inoculation was completed, the mice continued to be fed under the initial feeding conditions.
(4) The animals were sacrificed, and the tumors were separated and weighed. The animals in each group were treated immediately 1 h after administration on the last day and weighed, and the tumor tissue was weighed.
Animal grouping and administration: On the second day after tumor fluid inoculation of C57B/L mice, tumor-bearing mice were randomly grouped: a control group, a Compound 8-5 mg/kg group, a Compound 8-10 mg/kg group, a Compound 8-20 mg/kg group, and a positive control drug cyclophosphamide CTX-100 mg/kg group. The animals were weighed and administered daily. The drugs to be tested were administered orally daily, and the positive control drug CTX was administered intraperitoneally once. After the experiment was completed, the body weights and tumor weights of the animals were weighed, and the tumor weight inhibition rate (%) was calculated.

LAG3/FGL1 = biological target: T1, LAG3/FGL1 (Homo sapiens, UniProt P18627); experiment: HTRF binding inhibition of LAG3 and its ligand FGL1; settings: Table 2; read-out: IC50 value for inhibiting LAG3/FGL1 interaction
T1 sequence (P18627 23-450 limits assumed): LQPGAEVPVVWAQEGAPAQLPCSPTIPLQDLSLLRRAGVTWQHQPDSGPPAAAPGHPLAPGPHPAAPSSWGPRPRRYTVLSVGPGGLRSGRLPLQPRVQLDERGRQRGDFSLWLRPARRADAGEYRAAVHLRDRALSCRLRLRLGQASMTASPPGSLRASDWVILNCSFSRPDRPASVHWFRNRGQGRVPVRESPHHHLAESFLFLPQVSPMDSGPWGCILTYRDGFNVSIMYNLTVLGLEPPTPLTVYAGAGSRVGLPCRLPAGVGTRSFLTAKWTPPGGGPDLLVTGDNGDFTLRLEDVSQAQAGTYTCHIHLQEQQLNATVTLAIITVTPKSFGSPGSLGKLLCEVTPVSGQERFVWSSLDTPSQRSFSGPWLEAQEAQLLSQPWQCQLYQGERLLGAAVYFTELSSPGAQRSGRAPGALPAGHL
Method: Reagent preparation: ① Tag1-LAG3 protein: a protein solution with a concentration of 50 nM (20 µL with a final system concentration of 10 nM) was prepared using a diluent. ② Tag2-FGL1 protein: a protein solution with a concentration of 100 nM (20 µL with a final system concentration of 20 nM) was prepared using a diluent. ③ Anti-Tag1-Tb: a 100× stock solution was diluted with a detection buffer to a 1 × stock solution. ④ Anti-Tag2-XL665: a 100× stock solution was diluted with a detection buffer to a 1 × stock solution.
Assay step: (1) 2 µL of compound solution (with a concentration to be measured of 10×) was added to a 384-well opaque plate having a white background, 4 µL of Tag1-LAG3 protein and 4 µL of Tag2-FGL1 protein were added, respectively, and the plate was incubated at room temperature for 15 min; (2) Anti-Tag1-Tb and Anti-Tag2-XL665 were mixed at a ratio of 1:1 in advance, and 10 µL of mix solution was added to each well; (3) the plate was gently mixed, sealed, and incubated at room temperature for 1 h or overnight before detection.

[2] = HEPA1-6, 10 mg/kg po once a day
[3] = HEPA1-6, 20 mg/kg po once a day

| SMILES | Inhibition rate ([1]; HEPA1-6, 5 mg/kg po once a day) [%] | Tumor weight ([1]; HEPA1-6, 5 mg/kg po once a day) [g] | Inhibition rate [1, 2] [%] | Tumor weight [1, 2] [g] | Inhibition rate [1, 3] [%] | Tumor weight [1, 3] [g] | Inhibition rate (mouse melanoma B16F10; B16F10, 5 mg/kg orally daily) [%] | Tumor weight (mouse melanoma B16F10; B16F10, 5 mg/kg orally daily) [g] | Inhibition rate (mouse melanoma B16F10; B16F10, 10 mg/kg orally daily) [%] | Tumor weight (mouse melanoma B16F10; B16F10, 10 mg/kg orally daily) [g] | Inhibition rate (mouse melanoma B16F10; B16F10, 20 mg/kg orally daily) [%] | Tumor weight (mouse melanoma B16F10; B16F10, 20 mg/kg orally daily) [g] | IC50 (LAG3/FGL1) [µM] |
| --- | --- | --- | --- | --- | --- | --- | --- | --- | --- | --- | --- | --- | --- |
| CCCCCCOc1ccc2cc1-c1cc(ccc1OCCCCCC)C(=O)CCCCCC2=O [Compound 4] | 24.72 | 0.510 ± 0.312 | 52 | 0.325 ± 0.256 | 36.56 | 0.430 ± 0.140 | – | – | – | – | – | – | – |
| CCCCCCOc1ccc(C(=O)O)cc1-c1cc(C(=O)NCCCCNC(=O)C(F)(F)F)ccc1OCCCCCC [Compound 8] | – | – | – | – | – | – | 16.94 | 1.50 ± 0.27 | 19.78 | 1.45 ± 0.70 | 53.64 | 0.80 ± 0.46 | 10 |
